Earlier results on two compounds are cited in patent EP1017727B1, “COMPOSITION AND PHARMACEUTICAL PREPARATION CONTAINING SAME FOR THE TREATMENT OF HERPES AND RELATED VIRAL INFECTIONS” (priority 1997, dated 1999).

≈ marks a conversion by molar mass, not a printed value.

The subject of this series is HSV-1.

As to `O=Cc1cc(O)c(O)c(O)c1` [gallic aldehyde], the “IC50 against HSV-1” value was 12.5 µg/mL (≈ 81.1 µM).

For geponin, the “IC50 against HSV-1” value is 25 µg/mL.
